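Cultured in 96-well plates, cells were exposed to test compound for 48 hours across five concentrations. The concentration for 50% growth inhibition is given as GI50. Definition used: TGI = concentration required for complete inhibition of growth.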
What follows are compounds tested on A498 renal (assay: NCI-60 cell line screen, 48 h).
For `COc1ccc(OC)c2c(C(=O)O)c(Cc3ccccc3)ccc12`, the TGI was over 100 µM. Compound `O=C(Nc1c(Cl)cc([N+](=O)[O-])cc1Cl)C(=O)C(C1OC(=O)c2ccccc21)[N+](=O)[O-]` (centres undefined) has a TGI of over 100 µM. `Cc1c(C(=O)/C=C/c2ccccc2)[n+](=O)c2ccccc2n1[O-]` was tested, and the TGI was 31.3 µM. For `CN(CCC#N)c1ccc(/C=C(\C#N)c2ccc(Br)cc2)cc1`, the GI50 was over 100 µM and the TGI was over 100 µM. `N#CC1CC2(C1)OCCS2` (centres undefined) gave a TGI of over 100 µM. With `C1C[OH+]CC[OH+]CC[OH+]CC[OH+]CC[OH+]1.[Cl-].[V]` the GI50 was over 100 µM and the TGI was over 100 µM. `c1ccc(C2Nc3ccccc3C3OCCCC23)cc1` (centres undefined) showed a TGI of 71.9 µM.

These compounds were tested on NCI-H226 lung (assay: NCI-60 cell line screen, 48 h).
`O=C1[C@@H]2C(c3ccccc3F)=NO[C@@H]2C(=O)N1c1ccc(Cc2ccc(N3C(=O)[C@H]4C(c5ccccc5F)=NO[C@H]4C3=O)cc2)cc1` gave a TGI of over 100 µM. In the case of `C=CCc1ccc(Oc2cc(CC=C)c3c(c2O)O[C@@H](CO)[C@H]3c2ccc(O)c(-c3cc(CC=C)ccc3O)c2)cc1`, the TGI is reported as over 100 µM. `O=C(NCO)NCOCn1c(=O)n(CO)c(=O)n(CO)c1=O` showed a TGI of over 100 µM. Work on `COc1ccc(CCN2COc3c([C@@H](C)CCC=C(C)C)ccc(C)c3C2)cc1OC` yielded a GI50 of 8.64 µM and a TGI of 21.6 µM. `O=C1OC2CCCC[C@@H]2C2C[C@]34CCCCC3[C@@H](C(=O)O4)C12` (some centres undefined) gave a TGI of over 100 µM. In the case of `COc1cc(/C=C/c2cc(/C=C/c3ccc(O)c(OC)c3)n(C(=O)Nc3ccc(C)cc3C)n2)ccc1O`, the GI50 is reported as 0.389 µM and the TGI is reported as 2.1 µM. For `C=C1C(=O)OC2/C=C(\COC(C)=O)CCC(OC(C)=O)C3=CC(OC3=O)C12` (centres undefined), the TGI was 46.4 µM. For `CCCSc1nc(COC(=O)NC)c(COC(=O)NC)n1C`, the TGI was over 100 µM. `O=C1CCC(O)=C1N=Nc1ccccc1` showed a TGI of over 100 µM. For `CCN(CC)c1ccc(N=Nc2ccc(-c3nc4ccc[n+](C)c4s3)cc2)cc1`, the TGI was 26.1 µM. Work on `C[C@]12CC[C@@H]3c4cc(OCC(F)(F)F)c(O)cc4/C(=N/O)C[C@H]3[C@@H]1CC[C@@H]2O` yielded a TGI of over 40.8 µM. For `COc1cc(/C=C/c2ccc(OC)c(OC)c2)cc(OC)c1`, the TGI was 74.4 µM. `O=C1CSC(/C(=N/Nc2ccccc2)c2nc3ccccc3[nH]2)=N1` gave a TGI of 59.7 µM. For `O=C(c1ccccc1)C1OC12C(=O)Nc1ccccc12` (centres undefined), the TGI was over 100 µM. Compound `COc1ccc2nc(NC(=O)C(=O)C(C#N)c3ccc([N+](=O)[O-])cc3)sc2c1` (centres undefined) has a TGI of over 100 µM. With `COc1ccc(/C=C/c2cc(OC)cc(=O)o2)cc1` the TGI was over 100 µM. For `O=C1CSC(c2ccc(Cl)cc2Cl)N1c1ccc(F)cc1` (centres undefined), the GI50 was 18.2 µM and the TGI was 38.2 µM. Compound `O=C(O)[C@H](NS(=O)(=O)c1ccc([N+](=O)[O-])cc1)c1ccccc1` has a TGI of over 100 µM. Compound `S=C1OC2CCCC[C@H]2O1` (some centres undefined) has a TGI of over 100 µM. With `CSC(C1c2ccccc2N(c2ccc(C)cc2)c2[nH]c(=O)n(C)c(=O)c21)S(=O)(=O)c1ccc(C)cc1` (centres undefined) the TGI was over 100 µM. `CCOC(=O)NC(=O)c1cn(CCCOC(=O)CCCCCCCCCCC(=O)OCCCn2cc(C(=O)NC(=O)OCC)c(=O)[nH]c2=O)c(=O)[nH]c1=O` was tested, and the TGI was over 100 µM. In the case of `COc1cc2[nH]c(C(=O)c3cc(OC)c(OC)c(OC)c3)c(N)c2cc1C#CC1CC1`, the GI50 is reported as 22.4 µM and the TGI is reported as over 100 µM. `COc1cc(/C=C(\C#N)c2ccccc2)cc(OC)c1` was tested, and the TGI was over 100 µM. `N#Cc1cccnc1Cl` showed a TGI of over 100 µM. Work on `CC(=O)N[C@H]1CSSC[C@@H](C(N)=O)NC(=O)[C@H](C(C)C)NC(=O)[C@H](C)NC(=O)[C@H](Cc2cnc[nH]2)NC1=O` yielded a GI50 of over 100 µM and a TGI of over 100 µM. `O=C1CC2c3ccccc3CCC2c2ccccc21` (centres undefined) was tested, and the TGI was 52.4 µM. In the case of `CCCCCCCCCCCC(=O)OCC1OC(OC)C(NC(=O)N(CCCl)N=O)C(O)C1O` (centres undefined), the TGI is reported as 59.3 µM. With `COc1ccc(OC)c2c(C(=O)O)c(Cc3ccccc3)ccc12` the TGI was over 100 µM. `O=C(Nc1c(Cl)cc([N+](=O)[O-])cc1Cl)C(=O)C(C1OC(=O)c2ccccc21)[N+](=O)[O-]` (centres undefined) was tested, and the TGI was over 100 µM. `Cc1c(C(=O)/C=C/c2ccccc2)[n+](=O)c2ccccc2n1[O-]` showed a TGI of 39.2 µM. `CN(CCC#N)c1ccc(/C=C(\C#N)c2ccc(Br)cc2)cc1` was tested, and the GI50 was over 100 µM and the TGI was over 100 µM. `N#CC1CC2(C1)OCCS2` (centres undefined) gave a TGI of over 100 µM. `C1C[OH+]CC[OH+]CC[OH+]CC[OH+]CC[OH+]1.[Cl-].[V]` was tested, and the GI50 was 28.1 µM and the TGI was over 100 µM. For `c1ccc(C2Nc3ccccc3C3OCCCC23)cc1` (centres undefined), the TGI was 68.3 µM.

The compounds below were run on SNB-75 CNS (assay: NCI-60 cell line screen, 48 h).
`O=C1[C@@H]2C(c3ccccc3F)=NO[C@@H]2C(=O)N1c1ccc(Cc2ccc(N3C(=O)[C@H]4C(c5ccccc5F)=NO[C@H]4C3=O)cc2)cc1` showed a TGI of over 100 µM. Work on `C=CCc1ccc(Oc2cc(CC=C)c3c(c2O)O[C@@H](CO)[C@H]3c2ccc(O)c(-c3cc(CC=C)ccc3O)c2)cc1` yielded a TGI of over 100 µM. Work on `Cn1c2ccccc2c(=O)c2ccc(Cl)cc21` yielded a TGI of over 10 µM. `O=C(NCO)NCOCn1c(=O)n(CO)c(=O)n(CO)c1=O` was tested, and the TGI was over 100 µM. `Clc1ccc2c(c1)-c1c3c(nn1-c1ccccc1)-c1ccccc1SC3O2` (centres undefined) was tested, and the TGI was over 100 µM. `COc1ccc(CCN2COc3c([C@@H](C)CCC=C(C)C)ccc(C)c3C2)cc1OC` gave a GI50 of 12.5 µM and a TGI of 35.4 µM. `O=C1OC2CCCC[C@@H]2C2C[C@]34CCCCC3[C@@H](C(=O)O4)C12` (some centres undefined) was tested, and the TGI was over 100 µM. Compound `CN(C)c1cc[c]([Sn]([c]2ccc(N(C)C)cc2)([c]2ccc(N(C)C)cc2)[c]2ccc(N(C)C)cc2)cc1` has a GI50 of 4.36 µM and a TGI of 17.2 µM. In the case of `C=C1C(=O)OC2/C=C(\COC(C)=O)CCC(OC(C)=O)C3=CC(OC3=O)C12` (centres undefined), the TGI is reported as 35.6 µM. `CCCSc1nc(COC(=O)NC)c(COC(=O)NC)n1C` gave a TGI of over 100 µM. Compound `O=C1CCC(O)=C1N=Nc1ccccc1` has a TGI of over 100 µM. Work on `CCN(CC)c1ccc(N=Nc2ccc(-c3nc4ccc[n+](C)c4s3)cc2)cc1` yielded a TGI of 27.5 µM. For `NC(=O)NCc1c(C(N)=O)ncn1Cc1ccccc1`, the TGI was over 100 µM. With `COc1cc(/C=C/c2ccc(OC)c(OC)c2)cc(OC)c1` the TGI was over 100 µM. In the case of `O=C1CSC(/C(=N/Nc2ccccc2)c2nc3ccccc3[nH]2)=N1`, the TGI is reported as 97.6 µM. `O=C(c1ccccc1)C1OC12C(=O)Nc1ccccc12` (centres undefined) gave a TGI of 42.2 µM. In the case of `COc1ccc2nc(NC(=O)C(=O)C(C#N)c3ccc([N+](=O)[O-])cc3)sc2c1` (centres undefined), the TGI is reported as over 100 µM. Compound `COc1ccc(/C=C/c2cc(OC)cc(=O)o2)cc1` has a TGI of 44.6 µM. In the case of `O=C(O)[C@H](NS(=O)(=O)c1ccc([N+](=O)[O-])cc1)c1ccccc1`, the TGI is reported as over 100 µM. Work on `S=C1OC2CCCC[C@H]2O1` (some centres undefined) yielded a TGI of over 100 µM. `O=C1/C(=C/c2cccc([N+](=O)[O-])c2)COc2ccc(Br)cc21` showed a TGI of over 100 µM. `CSC(C1c2ccccc2N(c2ccc(C)cc2)c2[nH]c(=O)n(C)c(=O)c21)S(=O)(=O)c1ccc(C)cc1` (centres undefined) was tested, and the TGI was over 100 µM. `COc1cc2[nH]c(C(=O)c3cc(OC)c(OC)c(OC)c3)c(N)c2cc1C#CC1CC1` showed a GI50 of 1.02 µM and a TGI of 3.99 µM. `N#Cc1cccnc1Cl` gave a TGI of over 100 µM. Work on `O=C1CC2c3ccccc3CCC2c2ccccc21` (centres undefined) yielded a TGI of over 100 µM. `CCCCCCCCCCCC(=O)OCC1OC(OC)C(NC(=O)N(CCCl)N=O)C(O)C1O` (centres undefined) gave a TGI of 52.8 µM. In the case of `C=CC/C=C/C/C=C/CCCCCCCc1cccc(O)c1C(=O)O`, the TGI is reported as over 100 µM. `COc1ccc(OC)c2c(C(=O)O)c(Cc3ccccc3)ccc12` showed a TGI of over 100 µM. `O=C(Nc1c(Cl)cc([N+](=O)[O-])cc1Cl)C(=O)C(C1OC(=O)c2ccccc21)[N+](=O)[O-]` (centres undefined) showed a TGI of over 100 µM. Compound `Cc1c(C(=O)/C=C/c2ccccc2)[n+](=O)c2ccccc2n1[O-]` has a TGI of 64.7 µM. `N#CC1CC2(C1)OCCS2` (centres undefined) showed a TGI of over 100 µM. In the case of `COc1cc(NC(C)CCCN)c2nccc(C)c2c1` (centres undefined), the TGI is reported as 37.1 µM. With `C1C[OH+]CC[OH+]CC[OH+]CC[OH+]CC[OH+]1.[Cl-].[V]` the GI50 was 16.2 µM and the TGI was 41.2 µM. In the case of `CC(=O)C(=CN1CCN(C(=O)c2ccco2)C1=S)C(C)=O`, the GI50 is reported as 9.02 µM and the TGI is reported as 71.4 µM.

Each compound was assayed on SF-268 CNS (assay: NCI-60 cell line screen, 48 h).
With `O=C1[C@@H]2C(c3ccccc3F)=NO[C@@H]2C(=O)N1c1ccc(Cc2ccc(N3C(=O)[C@H]4C(c5ccccc5F)=NO[C@H]4C3=O)cc2)cc1` the TGI was over 100 µM. `C=CCc1ccc(Oc2cc(CC=C)c3c(c2O)O[C@@H](CO)[C@H]3c2ccc(O)c(-c3cc(CC=C)ccc3O)c2)cc1` was tested, and the TGI was over 100 µM. Compound `Cn1c2ccccc2c(=O)c2ccc(Cl)cc21` has a TGI of over 10 µM. Work on `CC(CO)(CO)NCCCCn1ccc2c1C(=O)c1c(c(O)c3ccccc3c1O)C2=O` yielded a GI50 of 14.4 µM and a TGI of 40.9 µM. For `O=C(NCO)NCOCn1c(=O)n(CO)c(=O)n(CO)c1=O`, the TGI was over 80.8 µM. `Clc1ccc2c(c1)-c1c3c(nn1-c1ccccc1)-c1ccccc1SC3O2` (centres undefined) gave a TGI of over 100 µM. In the case of `COc1ccc(CCN2COc3c([C@@H](C)CCC=C(C)C)ccc(C)c3C2)cc1OC`, the GI50 is reported as 1.45 µM and the TGI is reported as 4.34 µM. Compound `O=C1OC2CCCC[C@@H]2C2C[C@]34CCCCC3[C@@H](C(=O)O4)C12` (some centres undefined) has a TGI of over 100 µM.

From PubChem BioAssay (NCI)
